# Laboratory results as given in patent US20240317791A1 (priority 2021, published 2024).
# Where two headings read alike, the source gives them in different places. Numbered stars: 1 amine (or outer) side, 2 acyl side, 3 side chain; on linkers, the order of the positions; unused ones are H or OH. Bridge positions count the residues as written; N and C are the ends. Square brackets hold non-standard residues; d marks the D form. Peptide text beside a SMILES is read from it. * marks the point of attachment. hTyr(3S-OH,4S-OH,3'-OSO3H) = N[C@H](C(=O)O)[C@H](O)[C@@H](O)c1ccc(O)c(OS(=O)(=O)O)c1; Orn(4R-OH,5R-OH) = O=C([C@H](C[C@@H](O)[C@@H](O)N[*:3])N[*:1])[*:2]; Pro(3S-OH,4S-Me) = C[C@H]1CN[C@H](C(=O)O)[C@H]1O; X1 = CCCCCOc1ccc(-c2cc(-c3ccc(C(=O)*)cc3)no2)cc1; Gln(3R-OH) = NC(=O)C[C@@H](O)[C@H](N)C(=O)O; Hyp = O=C(O)[C@@H]1C[C@@H](O)CN1
# Experiments:
# Candida auris = assay: MIC determination against clinical isolates of Candida auris (CLSI M27, 4th edition); assay type: cell-based; conditions: Candidozyma auris
# Text: (§1) MIC: Minimum Inhibitory Concentration (MIC) is defined as the lowest concentration of an antimicrobial ingredient that is bacteriostatic.
# (§2) Testing has been performed in triplicates for each isolate.
# Mucor circinelloides = assay: MIC determination against ATCC and clinical isolates of the order Mucorales (CLSI M27, 4th edition); assay type: cell-based
# Text: as §1, §2
# Rhizopus microsporus = assay: MIC determination against clinical isolates of the order Mucorales (CLSI M27, 4th edition); assay type: cell-based
# Text: as §1, §2
# Rhizopus oryzae [1] = assay: as above; assay type: cell-based; conditions: Rhizopus arrhizus, strain 2086, clinical strain
# Text: as §1, §2
# Aspergillus spp. = conditions: 13 strains of Aspergillus spp.; cited from earlier work
# Penicillium spp. = conditions: 5 strains of Penicillium spp.; cited from earlier work
# Sporothrix schenkii = conditions: 1 strain of Sporothrix schenkii; cited from earlier work
# Rhizopus oryzae [2] = conditions: 4 strains of Rhizopus oryzae; cited from earlier work
# Microsporum spp. = conditions: 2 strains of Microsporum spp; cited from earlier work
# Trichophyton spp. = conditions: 7 strains of Trichophyton spp.; cited from earlier work
# [3] = rats, single intravenous administration; amcipatricin diascorbate 1.25 mg/kg, amphotericin B 1 mg/kg; cited from earlier work
# [4] = strain I.2 (No 2), clade I/India, read-out: MIC values
# [5] = strain I.3 (No 3), clade I/India, read-out: MIC values
# [6] = strain I.4 (No 4), clade I/India, read-out: MIC values
# [7] = strain II.1 (No 5), clade II/Japan, read-out: MIC values
# [8] = strain II.2 (No 1), clade II/India, read-out: MIC values
# [9] = strain III.7 (No 12), clade III/Switzerland, read-out: MIC values
# [10] = strain III.8 (No 13), clade III/Israel, read-out: MIC values
# [11] = strain III.9 (No 14), clade III/Israel, read-out: MIC values
# [12] = strain IV.1 (No 15), clade IV/Colombia, read-out: MIC values
# [13] = strain IV.10 (No 7), clade IV/Israel, read-out: MIC values
# [14] = strain IV.11 (No 8), clade IV/Israel, read-out: MIC values
# [15] = strain IV.12 (No 9), clade IV/Israel, read-out: MIC values
# [16] = strain IV.13 (No 10), clade IV/Israel, read-out: MIC values
# [17] = strain IV.14 (No 11), clade IV/Israel, read-out: MIC values
# [18] = strain IV.2 (No 16), clade IV/Colombia, read-out: MIC values
# [19] = strain IV.3 (No 17), clade IV/Colombia, read-out: MIC values
# [20] = strain IV.4 (No 18), clade IV/Colombia, read-out: MIC values
# [21] = strain IV.5 (No 19), clade IV/Colombia, read-out: MIC values
# [22] = strain IV.6 (No 20), clade IV/Colombia, read-out: MIC values
# [23] = strain IV.7 (No 21), clade IV/Colombia, read-out: MIC values
# [24] = strain IV.8 (No 22), clade IV/Colombia, read-out: MIC values
# [25] = strain IV.9 (No 6), clade IV/Israel, read-out: MIC values
# [26] = ATCC24905, strain ATCC 24905, ATCC strain
smiles,measurement,setting,value
C[C@@H]1[C@H](O)[C@@H](C)/C=C/C=C/C=C/C=C/C=C/C=C/C=C/[C@H](O[C@@H]2O[C@H](C)[C@@H](O)[C@H](N)[C@@H]2O)C[C@@H]2O[C@](O)(C[C@@H](O)C[C@@H](O)[C@H](O)CC[C@@H](O)C[C@@H](O)CC(=O)O[C@H]1C)C[C@H](O)[C@H]2C(=O)O [Amphotericin B],MIC,Candida auris; [4],1 µg/mL
same,MIC,Candida auris; [5],1 µg/mL
same,MIC,Candida auris; [6],1 µg/mL
same,MIC,Candida auris; [7],0.5 µg/mL
same,MIC,Candida auris; [8],0.25 µg/mL
same,MIC,Candida auris; [9],0.5 µg/mL
same,MIC,Candida auris; [10],0.5 µg/mL
same,MIC,Candida auris; [11],1 µg/mL
same,MIC,Candida auris; [12],2 µg/mL
same,MIC,Candida auris; [13],0.25 µg/mL
same,MIC,Candida auris; [14],0.5 µg/mL
same,MIC,Candida auris; [15],0.5 µg/mL
same,MIC,Candida auris; [16],1 µg/mL
same,MIC,Candida auris; [17],0.5 µg/mL
same,MIC,Candida auris; [18],2 µg/mL
same,MIC,Candida auris; [19],2 µg/mL
same,MIC,Candida auris; [20],1 µg/mL
same,MIC,Candida auris; [21],1 µg/mL
same,MIC,Candida auris; [22],1 µg/mL
same,MIC,Candida auris; [23],1 µg/mL
same,MIC,Candida auris; [24],1 µg/mL
same,MIC,Candida auris; [25],0.5 µg/mL
same,MIC,Mucor circinelloides; [26],0.25 µg/mL
same,MIC,"Mucor circinelloides; strain 2109, clinical strain",0.5 µg/mL
same,MIC,"Mucor circinelloides; strain 2707, clinical strain",0.25 µg/mL
same,MIC,"Mucor circinelloides; strain 4280, clinical strain",1 µg/mL
same,MIC,"Rhizopus microsporus; strain 3315, clinical strain",0.25 µg/mL
same,MIC,"Rhizopus microsporus; strain 3435, clinical strain",0.5 µg/mL
same,MIC,Rhizopus oryzae [1],1 µg/mL
same,geometric means of the minimum fungicidal concentrations,Aspergillus spp.,12.53 µg/mL
same,geometric means of the minimum fungicidal concentrations,Penicillium spp.,about 12 μg/mL
same,MFC,Sporothrix schenkii,19.2 µg/mL
same,geometric means of the minimum fungicidal concentration values compared to amcipatricin diascorbate,Rhizopus oryzae [2],lower
same,geometric means of the minimum fungicidal concentration values compared to amcipatricin diascorbate,Microsporum spp.,lower
same,geometric means of the minimum fungicidal concentration values compared to amcipatricin diascorbate,Trichophyton spp.,lower
same,area under the curve to infinity (AUC(0-∞)),[3],10330 ng·h/mL
same,elimination half-lives,[3],18.15 h
OC(Cn1cncn1)(Cn1cncn1)c1ccc(F)cc1F [Fluconazole],MIC,Candida auris; [4],1020 µg/mL
same,MIC,Candida auris; [5],1020 µg/mL
same,MIC,Candida auris; [6],1020 µg/mL
same,MIC,Candida auris; [7],4 µg/mL
same,MIC,Candida auris; [8],32 µg/mL
same,MIC,Candida auris; [9],1020 µg/mL
same,MIC,Candida auris; [10],512 µg/mL
same,MIC,Candida auris; [11],1020 µg/mL
same,MIC,Candida auris; [12],4 µg/mL
same,MIC,Candida auris; [13],32 µg/mL
same,MIC,Candida auris; [14],32 µg/mL
same,MIC,Candida auris; [15],32 µg/mL
same,MIC,Candida auris; [16],32 µg/mL
same,MIC,Candida auris; [17],32 µg/mL
same,MIC,Candida auris; [18],128 µg/mL
same,MIC,Candida auris; [19],128 µg/mL
same,MIC,Candida auris; [20],128 µg/mL
same,MIC,Candida auris; [21],128 µg/mL
same,MIC,Candida auris; [22],128 µg/mL
same,MIC,Candida auris; [23],1020 µg/mL
same,MIC,Candida auris; [24],1020 µg/mL
same,MIC,Candida auris; [25],16 µg/mL
"CCCCCOc1ccc(-c2cc(-c3ccc(C(=O)N[C@H]4C[C@@H](O)[C@@H](O)NC(=O)[C@@H]5[C@@H](O)[C@@H](C)CN5C(=O)[C@H]([C@H](O)CC(N)=O)NC(=O)[C@H]([C@H](O)[C@@H](O)c5ccc(O)c(OS(=O)(=O)O)c5)NC(=O)[C@@H]5C[C@@H](O)CN5C(=O)[C@H]([C@@H](C)O)NC4=O)cc3)no2)cc1 [Micafungin] (X1-[Orn(4R-OH,5R-OH)]T[Hyp][hTyr(3S-OH,4S-OH,3'-OSO3H)][Gln(3R-OH)][Pro(3S-OH,4S-Me)]; lactam 1-C)",MIC,"Candida auris; read-out: MIC values, strain I.2 (No 2), clade I/India",0.125 µg/mL
same,MIC,"Candida auris; read-out: MIC values, strain I.3 (No 3), clade I/India",> 1020 µg/mL
same,MIC,"Candida auris; read-out: MIC values, strain I.4 (No 4), clade I/India",0.125 µg/mL
same,MIC,"Candida auris; read-out: MIC values, strain II.1 (No 5), clade II/Japan",0.125 µg/mL
same,MIC,"Candida auris; read-out: MIC values, strain II.2 (No 1), clade II/India",0.125 µg/mL
same,MIC,"Candida auris; read-out: MIC values, strain III.7 (No 12), clade III/Switzerland",0.25 µg/mL
same,MIC,"Candida auris; read-out: MIC values, strain III.8 (No 13), clade III/Israel",0.25 µg/mL
same,MIC,"Candida auris; read-out: MIC values, strain III.9 (No 14), clade III/Israel",0.25 µg/mL
same,MIC,"Candida auris; read-out: MIC values, strain IV.1 (No 15), clade IV/Colombia",0.125 µg/mL
same,MIC,"Candida auris; read-out: MIC values, strain IV.10 (No 7), clade IV/Israel",0.25 µg/mL
same,MIC,"Candida auris; read-out: MIC values, strain IV.11 (No 8), clade IV/Israel",0.25 µg/mL
same,MIC,"Candida auris; read-out: MIC values, strain IV.12 (No 9), clade IV/Israel",0.25 µg/mL
same,MIC,"Candida auris; read-out: MIC values, strain IV.13 (No 10), clade IV/Israel",0.25 µg/mL
same,MIC,"Candida auris; read-out: MIC values, strain IV.14 (No 11), clade IV/Israel",0.5 µg/mL
same,MIC,"Candida auris; read-out: MIC values, strain IV.2 (No 16), clade IV/Colombia",0.125 µg/mL
same,MIC,"Candida auris; read-out: MIC values, strain IV.3 (No 17), clade IV/Colombia",0.125 µg/mL
same,MIC,"Candida auris; read-out: MIC values, strain IV.4 (No 18), clade IV/Colombia",0.125 µg/mL
same,MIC,"Candida auris; read-out: MIC values, strain IV.5 (No 19), clade IV/Colombia",0.125 µg/mL
same,MIC,"Candida auris; read-out: MIC values, strain IV.6 (No 20), clade IV/Colombia",0.125 µg/mL
same,MIC,"Candida auris; read-out: MIC values, strain IV.7 (No 21), clade IV/Colombia",0.25 µg/mL
same,MIC,"Candida auris; read-out: MIC values, strain IV.8 (No 22), clade IV/Colombia",0.25 µg/mL
same,MIC,"Candida auris; read-out: MIC values, strain IV.9 (No 6), clade IV/Israel",0.25 µg/mL
CC[C@@H]([C@H](C)O)n1ncn(-c2ccc(N3CCN(c4ccc(OC[C@@H]5CO[C@@](Cn6cncn6)(c6ccc(F)cc6F)C5)cc4)CC3)cc2)c1=O [Posaconazole],MIC,Mucor circinelloides; [26],1 µg/mL
same,MIC,"Mucor circinelloides; strain 2109, clinical strain",0.5 µg/mL
same,MIC,"Mucor circinelloides; strain 2707, clinical strain",0.5 µg/mL
same,MIC,"Mucor circinelloides; strain 4280, clinical strain",1 µg/mL
same,MIC,"Rhizopus microsporus; strain 3435, clinical strain",0.5 µg/mL
same,MIC,Rhizopus oryzae [1],0.25 µg/mL
C[C@@H](c1ncncc1F)[C@](O)(Cn1cncn1)c1ccc(F)cc1F [Voriconazole],MIC,Candida auris; [4],1 µg/mL
same,MIC,Candida auris; [5],2 µg/mL
same,MIC,Candida auris; [6],1 µg/mL
same,MIC,Candida auris; [7],0.0625 µg/mL
same,MIC,Candida auris; [8],1 µg/mL
same,MIC,Candida auris; [9],2 µg/mL
same,MIC,Candida auris; [10],2 µg/mL
same,MIC,Candida auris; [11],2 µg/mL
same,MIC,Candida auris; [12],0.0625 µg/mL
same,MIC,Candida auris; [13],0.5 µg/mL
same,MIC,Candida auris; [14],0.5 µg/mL
same,MIC,Candida auris; [15],1 µg/mL
same,MIC,Candida auris; [16],0.5 µg/mL
same,MIC,Candida auris; [17],1 µg/mL
same,MIC,Candida auris; [18],1 µg/mL
same,MIC,Candida auris; [19],1 µg/mL
same,MIC,Candida auris; [20],0.5 µg/mL
same,MIC,Candida auris; [21],0.5 µg/mL
same,MIC,Candida auris; [22],0.5 µg/mL
same,MIC,Candida auris; [23],8 µg/mL
same,MIC,Candida auris; [24],8 µg/mL
same,MIC,Candida auris; [25],1 µg/mL
